Among the data in patent US8022225B2, “Triazole derivative” (Taisho Pharmaceutical Co., Ltd, priority 2004, dated 2011) are inhibition and melting point values, retold here.

Data set [1] concerns the target T1, human Edg-1(S1P1) (Homo sapiens, UniProt P21453).
T1 construct: expressed in transfected cells; host or cells: HEK-293
The experiment in a line: Membrane system binding test: inhibition of [33P]-S1P binding to the membrane fraction of Edg-1(S1P1) gene transferred HEK-293 cells. Conditions: [33P]-S1P 0.1 nM. Put shortly: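 Compound tested at 10^−5 M final (0.1% DMSO) for blocking 0.1 nM [^33P]-S1P binding to S1P1-expressing HEK-293 membranes, 30 °C, 1 h. Radioactivity retained on filters was counted, and percent inhibition derived relative to vehicle binding, correcting for the background of non-transfected HEK-293 membranes.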

The target of data set [2] is T1, human Edg-1(S1P1). Description: Cell system binding test: inhibition of [3H]-S1P binding to Edg-1(S1P1) gene transferred HEK-293 cells. Conditions: [3H]-S1P 10 nM.
Setting [3] is: 10 μM compound, membrane fraction of Edg-1(S1P1) gene transferred HEK-293 cells, read-out: Membrane system binding test % inhibition (10 μM).
Where [4] appears, read: 10 μM compound, read-out: Cell system binding test % inhibition (10 μM).
The mark [5] stands for this setting: test compound 10^-5 M, 1 hour at 30° C., HEK-293 membrane fraction, read-out: Edg-1(S1P1) binding inhibition rate (membrane system binding test).
[6] abbreviates: test compound 10^-5 M, 1 hour, read-out: Edg-1(S1P1) binding inhibition rate (cell system binding test).

T1 sequence (P21453 whole entry): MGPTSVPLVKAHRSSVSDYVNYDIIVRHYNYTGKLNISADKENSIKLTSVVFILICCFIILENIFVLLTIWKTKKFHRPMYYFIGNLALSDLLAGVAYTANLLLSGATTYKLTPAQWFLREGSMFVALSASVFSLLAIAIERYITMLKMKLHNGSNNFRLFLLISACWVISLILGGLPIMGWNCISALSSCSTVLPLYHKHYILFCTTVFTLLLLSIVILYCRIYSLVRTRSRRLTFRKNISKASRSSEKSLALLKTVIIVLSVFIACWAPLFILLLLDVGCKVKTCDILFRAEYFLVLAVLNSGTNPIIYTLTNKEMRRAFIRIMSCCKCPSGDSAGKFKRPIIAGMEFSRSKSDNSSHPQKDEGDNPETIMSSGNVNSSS

As usually defined, the inhibition is the change of the read-out against control, counted positive when it falls. One may read the melting point as the temperature of the solid-liquid transition. Take `CCn1c(SC)nnc1[C@@H](C)NS(=O)(=O)c1ccc(Cl)cc1` [Compound 1, 4-chloro-N-{(1R)-1-[4-ethyl-5-(methylthio)-4H-1,2,4-triazol-3-yl]ethyl}benzenesulfonamide]: the melting point fell in the range of 176 to 177 °C. Moreover, the inhibition at 10 µM on human Edg-1(S1P1) [1] (setting [3]) was 72.3%. Further, on human Edg-1(S1P1) [2] (setting [4]), the inhibition at 10 µM came out at 89.8%.

In the case of `CCn1c(S)nnc1[C@@H](C)NS(=O)(=O)c1ccc(Cl)cc1` [Compound 90, 4-chloro-N-[(1R)-1-(4-ethyl-5-mercapto-4H-1,2,4-triazol-3-yl)ethyl]benzenesulfonamide], the melting point lay in the range of 169.5 to 172.5 °C. The inhibition at 10 µM on human Edg-1(S1P1) [1] (setting [3]) was determined as 48.8%. Moreover, on human Edg-1(S1P1) [2] (setting [4]), the inhibition at 10 µM was determined as 60.6%.

`C=CCSc1nnc([C@@H](C)N(C)S(=O)(=O)c2ccc(Cl)cc2)n1CC` [Compound 99, N-{(1R)-1-[5-(allylthio)-4-ethyl-4H-1,2,4-triazol-3-yl]ethyl}-4-chloro-N-methylbenzenesulfonamide] registered a melting point of 142 to 143 °C. Also, on human Edg-1(S1P1) [1] (setting [3]), the inhibition at 10 µM came to 57.4%. For the same compound, the inhibition at 10 µM at human Edg-1(S1P1) [2] (setting [4]) stood at 75.8%.

On to `C=CCSc1nnc(C(CCC)NS(=O)(=O)c2ccc(Cl)cc2)n1C` (centres unmarked) [Compound 125, N-{1-[(5-allylthio)-4-methyl-4H-1,2,4-triazol-3-yl]butyl}-4-chlorobenzenesulfonamide], for which the melting point lay within 161.5 to 162 °C. Also, at human Edg-1(S1P1) [1] (setting [3]), the inhibition at 10 µM stood at 52.4%. Besides, the inhibition at 10 µM on human Edg-1(S1P1) [2] (setting [4]) was 69%.

The compound `CCn1c([C@@H](C)NS(=O)(=O)c2ccc(Cl)cc2)nnc1S(C)(=O)=O` [Compound 182, 4-Chloro-N-{(1R)-1-[4-ethyl-5-(methylsulfonyl)-4H-1,2,4-triazol-3-yl]ethyl}benzenesulfonamide] yielded a melting point of 129 to 130 °C. Also, on human Edg-1(S1P1) [2] (setting [4]), the inhibition at 10 µM was found to be 53.7%.

The compound `CCCOc1nnc([C@@H](C)NS(=O)(=O)c2ccc(Cl)cc2)n1CC` [Compound 183, 4-Chloro-N-[(1R)-1-(4-ethyl-5-propoxy-4H-1,2,4-triazol-3-yl)ethyl]benzenesulfonamide] showed a melting point of 150.5 to 151.5 °C. The inhibition at 10 µM on human Edg-1(S1P1) [1] (setting [3]) is 97.7%. Also, the inhibition at 10 µM at human Edg-1(S1P1) [2] (setting [4]) was 89.2%.

`CCn1c(OC)nnc1[C@@H](C)NS(=O)(=O)c1ccccc1` [Compound 376, [(1R)-1-(4-Ethyl-5-methoxy-4H-[1,2,4]triazol-3-yl)ethyl]benzenesulfonamide]: the melting point is 161 to 162 °C. The inhibition at 10 µM on human Edg-1(S1P1) [1] (setting [3]) stood at 57.3%. The inhibition at 10 µM on human Edg-1(S1P1) [2] (setting [4]) worked out at 90.7%.

Take `CCn1c(OCC(F)(F)F)nnc1[C@@H](C)NS(=O)(=O)c1cccc(Br)c1` [Compound 491]: the inhibition at 10 µM at human Edg-1(S1P1) [1] (setting [5]) was 75.7%; on human Edg-1(S1P1) [2] (setting [6]), 88.9%.

With `CCn1c(OCC(F)(F)F)nnc1[C@@H](C)NS(=O)(=O)c1ccc(Br)cc1` [Compound 492], the inhibition at 10 µM is 87.9% at human Edg-1(S1P1) [1] (setting [5]) and 104% on human Edg-1(S1P1) [2] (setting [6]).

Regarding `CCn1c(OCC(F)(F)F)nnc1[C@@H](C)NS(=O)(=O)c1ccc(C)c(C)c1` [Compound 493], the inhibition at 10 µM on human Edg-1(S1P1) [1] (setting [5]) is 88.3%; on human Edg-1(S1P1) [2] (setting [6]) it was 105%.

Regarding `CCn1c(OCC(F)(F)F)nnc1[C@@H](C)NS(=O)(=O)c1ccc(C)c(F)c1` [Compound 494], the figures for the inhibition at 10 µM on human Edg-1(S1P1) [1] (setting [5]) and at human Edg-1(S1P1) [2] (setting [6]) were 87.1% and 102%, respectively.

As for `CCn1c(OCC(F)(F)F)nnc1[C@@H](C)NS(=O)(=O)c1ccc2ccccc2c1` [Compound 495], the inhibition at 10 µM at human Edg-1(S1P1) [1] (setting [5]) amounted to 89.9%; at human Edg-1(S1P1) [2] (setting [6]) it was 104%.

For the compound `CCn1c(OCC(F)(F)F)nnc1[C@@H](C)NS(=O)(=O)c1ccc(F)c(F)c1` [Compound 496], the inhibition at 10 µM at human Edg-1(S1P1) [1] (setting [5]) was 75.7%; on human Edg-1(S1P1) [2] (setting [6]), 103%.

As for `CCn1c(OCC(F)(F)F)nnc1[C@@H](C)NS(=O)(=O)c1cccc(OC(F)F)c1` [Compound 497], the inhibition at 10 µM at human Edg-1(S1P1) [1] (setting [5]) worked out at 66.5%; on human Edg-1(S1P1) [2] (setting [6]) it was 102%.

`CCn1c(OCC(F)(F)F)nnc1[C@@H](C)NS(=O)(=O)c1cccc(Cl)c1C` [Compound 498]: the inhibition at 10 µM amounted to 88.5% on human Edg-1(S1P1) [1] (setting [5]) and 104% at human Edg-1(S1P1) [2] (setting [6]).

In the case of `CCn1c(OCC(F)(F)F)nnc1[C@@H](C)NS(=O)(=O)c1ccc2nsnc2c1` [Compound 499], the inhibition at 10 µM worked out at 89.1% on human Edg-1(S1P1) [1] (setting [5]) and 107% at human Edg-1(S1P1) [2] (setting [6]).

On to `CCn1c(OCC(F)(F)F)nnc1[C@@H](C)NS(=O)(=O)c1ccc(C(F)(F)F)cc1` [Compound 500], for which the inhibition at 10 µM at human Edg-1(S1P1) [1] (setting [5]) was determined as 81.6%; at human Edg-1(S1P1) [2] (setting [6]), 103%.

Consider `CCn1c(OCC(F)(F)F)nnc1[C@@H](C)NS(=O)(=O)c1cc(F)cc(F)c1` [Compound 501], for which the inhibition at 10 µM at human Edg-1(S1P1) [1] (setting [5]) is 55.4%; on human Edg-1(S1P1) [2] (setting [6]) it was 102%.

With `CCn1c(OCC(F)(F)F)nnc1[C@@H](C)NS(=O)(=O)c1ccc(Br)c(Br)c1` [Compound 502], the inhibition at 10 µM is 86.3% on human Edg-1(S1P1) [1] (setting [5]) and 108% on human Edg-1(S1P1) [2] (setting [6]).

In the case of `CCn1c(OCC(F)(F)F)nnc1[C@@H](C)NS(=O)(=O)c1cccc(C(F)(F)F)c1` [Compound 503], the figures for the inhibition at 10 µM at human Edg-1(S1P1) [1] (setting [5]) and on human Edg-1(S1P1) [2] (setting [6]) were 73.3% and 104%, respectively.

As for `CCn1c(OCC(F)(F)F)nnc1[C@@H](C)NS(=O)(=O)c1cccc(OC(F)(F)F)c1` [Compound 504], the figures for the inhibition at 10 µM on human Edg-1(S1P1) [1] (setting [5]) and on human Edg-1(S1P1) [2] (setting [6]) were 54% and 96.6%, respectively.

On to `CCn1c(OCC(F)(F)F)nnc1[C@@H](C)NS(=O)(=O)c1cccc(C)c1` [Compound 505], for which the inhibition at 10 µM was found to be 74.4% at human Edg-1(S1P1) [1] (setting [5]) and 103% at human Edg-1(S1P1) [2] (setting [6]).

As to `CCn1c(OCC(F)(F)F)nnc1[C@@H](C)NS(=O)(=O)c1cc(Cl)c(Cl)s1` [Compound 510], the inhibition at 10 µM on human Edg-1(S1P1) [1] (setting [5]) is 70.9%; at human Edg-1(S1P1) [2] (setting [6]) it was 106%.

Regarding `CCn1c(OCC(F)(F)F)nnc1[C@@H](C)NS(=O)(=O)c1ccc(I)cc1` [Compound 511], the inhibition at 10 µM at human Edg-1(S1P1) [1] (setting [5]) is 85.4%; at human Edg-1(S1P1) [2] (setting [6]) it was 99%.

For the compound `CCn1c(OCC(F)(F)F)nnc1[C@@H](C)NS(=O)(=O)c1ccc(F)cc1` [Compound 512], the inhibition at 10 µM on human Edg-1(S1P1) [1] (setting [5]) came out at 71.5%; at human Edg-1(S1P1) [2] (setting [6]), 105%.

As to `CCn1c(OCC(F)(F)F)nnc1[C@@H](C)NS(=O)(=O)c1ccc(Br)c(C(F)(F)F)c1` [Compound 513], the figures for the inhibition at 10 µM on human Edg-1(S1P1) [1] (setting [5]) and at human Edg-1(S1P1) [2] (setting [6]) were 55.2% and 98.8%, respectively.

As for `CCn1c(OCC(F)(F)F)nnc1[C@@H](C)NS(=O)(=O)c1cccc(Cl)c1` [Compound 514], the inhibition at 10 µM at human Edg-1(S1P1) [1] (setting [5]) was 86.7%; on human Edg-1(S1P1) [2] (setting [6]), 98.4%.

In the case of `CCc1ccc(S(=O)(=O)N[C@H](C)c2nnc(OCC(F)(F)F)n2CC)cc1` [Compound 515], the inhibition at 10 µM at human Edg-1(S1P1) [1] (setting [5]) is 62.4%; on human Edg-1(S1P1) [2] (setting [6]), 103%.

Regarding `CCn1c(OCC(F)(F)F)nnc1[C@@H](C)NS(=O)(=O)c1cccc(OC)c1` [Compound 516], the inhibition at 10 µM is 61.9% at human Edg-1(S1P1) [1] (setting [5]) and 101% on human Edg-1(S1P1) [2] (setting [6]).

For `CCn1c(OCC(F)(F)F)nnc1[C@@H](C)NS(=O)(=O)c1cc(F)c(Br)cc1F` [Compound 517], the inhibition at 10 µM on human Edg-1(S1P1) [1] (setting [5]) was 42.7%; on human Edg-1(S1P1) [2] (setting [6]), 93.7%.

As for `CCCn1c(OC)nnc1[C@@H](C)NS(=O)(=O)c1ccc(Cl)cc1` [Compound 541], the inhibition at 10 µM at human Edg-1(S1P1) [1] (setting [5]) is 75.8%; at human Edg-1(S1P1) [2] (setting [6]), 97.1%.

Take `COc1nnc([C@@H](C)NS(=O)(=O)c2ccc(Cl)cc2)n1C(C)C` [Compound 542]: the figures for the inhibition at 10 µM on human Edg-1(S1P1) [1] (setting [5]) and at human Edg-1(S1P1) [2] (setting [6]) were 92.3% and 99.9%, respectively.

Consider `COc1nnc([C@@H](C)NS(=O)(=O)c2ccc(Cl)cc2)n1C1CC1` [Compound 543], for which the inhibition at 10 µM worked out at 101% on human Edg-1(S1P1) [1] (setting [5]) and 93.1% on human Edg-1(S1P1) [2] (setting [6]).

For `CCCCn1c(OC)nnc1[C@@H](C)NS(=O)(=O)c1ccc(Cl)cc1` [Compound 544], the inhibition at 10 µM on human Edg-1(S1P1) [1] (setting [5]) amounted to 100%; on human Edg-1(S1P1) [2] (setting [6]) it was 47.5%.
